Nine molecules from the NIST ThermoML archive (doi:10.1016/j.jct.2006.03.010) can be followed below.

Structures are written as SMILES. ± gives the expanded uncertainty stated by the source.

For series [1] the following is noted: 101 kPa, Liquid; for speed of sound: Linear variable-path acoustic interferometer.
The nature of series [2]: xn = mol fraction of the nth substance listed. The following applies: 101 kPa, Liquid, x2 = 0; for speed of sound: Linear variable-path acoustic interferometer.

In general, mass density refers to mass per unit of volume. The term viscosity denotes the internal friction of a fluid under shear. In general, speed of sound refers to the propagation velocity of pressure waves in the medium. Regarding `CCCCO` [butan-1-ol], in series [1] (298.15 K), the mass density amounted to 806.33 ± 0.5 kg/m3, the viscosity worked out at 2.585 ± 0.034 mPa·s and the speed of sound is recorded as 1235 ± 3 m/s. Further, in series [1] (308.15 K), the mass density was 798.38 ± 0.54 kg/m3, the viscosity was found to be 2.012 ± 0.028 mPa·s and the speed of sound is reported as 1210 ± 3 m/s.

Turning to `CCCCO` [butan-1-ol] + ClC(Cl)Cl, in series [2] (298.15 K), the speed of sound turned out to be 1235 ± 3 m/s, the mass density was determined as 806.33 ± 0.5 kg/m3 and the viscosity turned out to be 2.585 ± 0.034 mPa·s. Also, in series [2] (308.15 K), the speed of sound is reported as 1210 ± 3 m/s, the mass density amounted to 798.38 ± 0.54 kg/m3 and the viscosity was 2.012 ± 0.028 mPa·s.

In the case of `CCO` [ethanol], in series [1] (298.15 K), the mass density was 784.32 ± 0.39 kg/m3, the viscosity is listed as 1.084 ± 0.014 mPa·s and the speed of sound was determined as 1144 ± 3 m/s. In series [1] (308.15 K), the mass density is 775.51 ± 0.43 kg/m3, the viscosity is given as 0.902 ± 0.013 mPa·s and the speed of sound is on record as 1111 ± 3 m/s.

Turning to `CCO` [ethanol] + ClC(Cl)Cl, in series [2] (298.15 K), the speed of sound is 1144 ± 3 m/s, the mass density came out at 784.32 ± 0.39 kg/m3 and the viscosity came out at 1.084 ± 0.014 mPa·s. Further, in series [2] (308.15 K), the speed of sound is on record as 1111 ± 3 m/s, the mass density is on record as 775.51 ± 0.43 kg/m3 and the viscosity stood at 0.902 ± 0.013 mPa·s.

Take `CO` [methanol]: in series [1] (298.15 K), the mass density is reported as 786.3 ± 0.39 kg/m3, the viscosity is on record as 0.551 ± 0.009 mPa·s and the speed of sound was found to be 1109 ± 3 m/s. Besides, in series [1] (308.15 K), the mass density is 776.6 ± 0.43 kg/m3, the viscosity is on record as 0.493 ± 0.009 mPa·s and the speed of sound turned out to be 1076 ± 3 m/s.

In the case of `CO` [methanol] + ClC(Cl)Cl, in series [2] (298.15 K), the speed of sound came out at 1109 ± 3 m/s, the mass density came out at 786.3 ± 0.39 kg/m3 and the viscosity was 0.551 ± 0.009 mPa·s. In series [2] (308.15 K), the speed of sound was 1076 ± 3 m/s, the mass density was 776.6 ± 0.43 kg/m3 and the viscosity came to 0.493 ± 0.009 mPa·s.

Turning to `CCCO` [propan-1-ol], in series [1] (298.15 K), the mass density was 800.82 ± 0.4 kg/m3, the viscosity is 1.95 ± 0.024 mPa·s and the speed of sound is 1212 ± 3 m/s. In series [1] (308.15 K), the mass density came to 792.51 ± 0.44 kg/m3, the viscosity was 1.533 ± 0.02 mPa·s and the speed of sound is 1177 ± 3 m/s.

For the molecule `CCCO` [propan-1-ol] + ClC(Cl)Cl, in series [2] (298.15 K), the speed of sound amounted to 1212 ± 3 m/s, the mass density was 800.82 ± 0.4 kg/m3 and the viscosity was 1.95 ± 0.024 mPa·s. Moreover, in series [2] (308.15 K), the speed of sound came out at 1177 ± 3 m/s, the mass density stood at 792.51 ± 0.44 kg/m3 and the viscosity was found to be 1.533 ± 0.02 mPa·s.

As to `ClC(Cl)Cl` [trichloromethane], in series [1] (298.15 K), the mass density is 1478.82 ± 1.2 kg/m3, the viscosity is reported as 0.556 ± 0.01 mPa·s and the speed of sound is reported as 985 ± 3 m/s. In addition, in series [1] (308.15 K), the mass density is recorded as 1459.45 ± 1.2 kg/m3, the viscosity is recorded as 0.513 ± 0.009 mPa·s and the speed of sound is 950 ± 2 m/s.
